Measurements published in patent US20070141181A1, “Use of anabolic agents, anti-catabolic agents, antioxidant agents, and analgesics for protection, treatment and repair of connective tissues in humans and animals” (NUTRAMAX LABORATORIES, INC., priority 1998, published 2007).
Several values for one entry are separate records, joined by “and”; a condition that tells them apart may be missing. Equal values may be shown once.

System: adult bovine cartilage cells
Experiment: GAG synthesis (35-sulfate incorporation) in cultured cartilage cells
Type: cell-based
Details: 4 hours incubation, individual agent
Procedure: Articular cartilage was resected from human or animal joints aseptically and placed into a large petri dish in a small amount of DMEM/F-12 or F-12. The tissue was diced to 1-2 mm dimensions and transferred to a small culture flask containing 20 mL DMEM or F-12+400 u/mL collagenase. The flask was placed on the shaker and incubated overnight.
The cell digest was repeatedly aspirated to increase release of cells. The cell digest was then placed into a 50 mL sterile centrifuge tube and centrifuged in the Beckman at 1000 RPM for 10 minutes. The medium was discarded by pipette and fresh DMEM/F-12 containing 1% FCS added. Depending on the size of the pellet, about […] medium was added. Cell counts were determined by haemocytometer and the digest made up to a concentration of 100,000 cells/0.2 mL.
To conduct GAG synthesis, 0.2 mL was aliquoted into each well of a 96 well plate using an 8 channel pipetter and the cells allowed to attach for 24 hours. The media was removed and 0.3 mL of fresh 1% FCS media added for 2-3 days. On the day of the experiment, the media was removed and the experimental solutions containing 35-sulfate isotope were added. The incubation was continued for 4 hours. Termination: at the end of the incubation period, the labeling media was removed, the cell layer was rinsed repeatedly with cold 0.3 mL DMEM or F-12 (about 5 times.), and the cell layer was frozen for counting.
The cell layer for both the synthesis experiments were heated at 50 degrees after adding 100 ul 1 N NaOH for a period of 2 hours. 200 ul scintillant was added and the plates were placed in the counter. The data was expressed as CPM/100,000 cells.

Compound	Indv. Agents: CPM/100,000 cells	Indv. Agents: CPM/100,000 cells (listed as ChS04-H)	Indv. Agents: CPM/100,000 cells (listed as 3% Sam)
Collagen	118 CPM/100,000 cells (3×) and 70 CPM/100,000 cells		
Pentosan [10Pentos]	76 CPM/100,000 cells		
CCCCC/C=C\C/C=C\C/C=C\C/C=C\CCCC(=O)O [AA, Arachadonic Acid]	70 CPM/100,000 cells		
N[C@H]1C(O)O[C@H](CO)[C@@H](O)[C@@H]1O (some centres unmarked) [Glu-H, Glucosamine]	117 CPM/100,000 cells		
Chondroitin [CHSO4-L]	64 CPM/100,000 cells	50 CPM/100,000 cells	
C[S+](CC[C@H](N)C(=O)[O-])C[C@H]1O[C@@H](n2cnc3c(N)ncnc32)[C@H](O)[C@@H]1O (some centres unmarked) [1% Sam, S-adenosylmethionine]	123 CPM/100,000 cells		42 CPM/100,000 cells
